The values below are quoted from earlier work in US5246969A, “Di-propargyl-containing aryl/alkylsulfonyl-terminated alanine amino-diol compounds for treatment of hypertension” (G. D. Searle & Co., priority 1992, dated 1993).

For this data set, the system named is hog renin. Conditions: nephrectomized rats after the injection of hog renin.

Square brackets hold non-standard residues; d marks the D form. Peptide text beside a SMILES is read from it. * marks the point of attachment. Sta = CC(C)C[C@H](N)[C@@H](O)CC(=O)O; Isovaleryl = CC(C)CC(=O)*

For the molecule `CC(C)CC(=O)N[C@H](C(=O)N[C@H](C(=O)N[C@@H](CC(C)C)[C@@H](O)CC(=O)N[C@@H](C)C(=O)N[C@@H](CC(C)C)[C@@H](O)CC(=O)O)C(C)C)C(C)C` [pepstatin] (Isovaleryl-VV[Sta]A[Sta]-OH), the “blood pressure in vivo” value is on record as “reduce blood pressure”.
